From ChEMBL document CHEMBL1201862, “PubChem BioAssay data set” (2004) come the findings set out here.

Some test systems named below: SF-539; LOX IMVI; OVCAR-8; T47D; SR; M14; U-251; Hs-578T; HCT-15; MDA-MB-435; CAKI-1; UACC-62; NCI/ADR-RES; UACC-257; SNB-19; HL-60; HOP-92; MOLT-4; A549; SNB-75.
Holding throughout (assay): growth of human tumour cells (NCI), 48 h

Each structure is given as a SMILES string.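 Five concentrations, 48 hours, 96-well plates. Here, GI50 denotes the concentration required for 50% inhibition of growth.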 Activity calls are given as the source filed them. Rule as the data show it: active = GI50 up to about 1.1 µM and inactive = higher.

As to `O=C(Nc1ccccc1Cl)c1cc(S(=O)(=O)Nc2n[nH]c(=O)n2-c2ccccc2)c(S)cc1Cl`, the GI50 in the assay on SF-539, in the assay with LOX IMVI, with OVCAR-8, in the assay on T47D, in the assay on SR and in the assay on M14 was > 100 µM (inactive) each time. In addition, the GI50 in the assay with U-251 was > 100 µM (inactive); in the assay on Hs-578T, > 100 µM (inactive); in the assay on HCT-15, more than 100 µM; in the assay with MDA-MB-435, > 100 µM (inactive); in the assay on CAKI-1 it was > 100 µM (inactive); with UACC-62 it was > 100 µM (inactive). Further, the GI50 in the assay with NCI/ADR-RES was > 100 µM (inactive); with UACC-257 it was > 100 µM (inactive); in the assay on SNB-19, 92.3 µM (inactive); in the assay with HL-60, > 100 µM (inactive); in the assay with HOP-92 it was > 100 µM (inactive); in the assay with MOLT-4, > 100 µM (inactive).

On to `CN(C)c1ccc(/C=C2\N=C(c3ccccc3)N(c3nc4c(Cl)cc(Cl)cc4s3)C2=O)cc1`, for which the GI50 with SF-539 was > 100 µM (inactive); in the assay with LOX IMVI, 38.3 µM (inactive); in the assay on OVCAR-8, 61.9 µM (inactive); in the assay on T47D it was 52.5 µM (inactive); in the assay with SR it was 32.1 µM (inactive); in the assay with M14 it was 75.7 µM (inactive). In addition, the GI50 is 55.3 µM (inactive) in the assay on U-251; 27 µM (inactive) with Hs-578T; 43.6 µM in the assay with HCT-15; 21.2 µM (inactive) in the assay on MDA-MB-435; 41.8 µM (inactive) with CAKI-1; 33.1 µM (inactive) in the assay with UACC-62. For the same compound, the GI50 in the assay on NCI/ADR-RES is 43.7 µM (inactive); with UACC-257, 47 µM (inactive); in the assay on SNB-19, 82.4 µM (inactive); with HL-60, 24.9 µM (inactive); with HOP-92 it was 24.5 µM (inactive); with A549, 49.9 µM (inactive). The GI50 with MOLT-4 is 22.6 µM (inactive).

As to `N#C/C(C(=S)NCc1ccccc1)=C(/N)N1CCCC1`, the GI50 with SF-539 was > 100 µM (inactive); in the assay with LOX IMVI, > 100 µM (inactive); with OVCAR-8 it was > 100 µM (inactive); in the assay with T47D it was 25.1 µM (inactive); in the assay with SR, > 100 µM (inactive); with M14 it was > 100 µM (inactive). Besides, the GI50 in the assay with U-251 is > 100 µM (inactive); in the assay with Hs-578T it was > 100 µM (inactive); in the assay with HCT-15, more than 100 µM; in the assay on MDA-MB-435, > 100 µM (inactive); with CAKI-1 it was > 100 µM (inactive); in the assay on UACC-62, > 100 µM (inactive). Moreover, the GI50 in the assay on NCI/ADR-RES was > 100 µM (inactive); in the assay with UACC-257, > 100 µM (inactive); in the assay on SNB-19, > 100 µM (inactive); with HL-60, > 100 µM (inactive); with HOP-92, 44.9 µM (inactive); in the assay on A549 it was > 100 µM (inactive). In addition, the GI50 in the assay on MOLT-4 is > 100 µM (inactive).

With `COC(=O)CC(C)(N[S+]([O-])c1ccc(C)cc1)c1ccccc1` (stereo not drawn), the GI50 with SF-539, in the assay with LOX IMVI, in the assay on T47D, with SR, in the assay on U-251 and with Hs-578T was > 100 µM (inactive) each time. The GI50 is more than 100 µM with HCT-15; > 100 µM (inactive) in the assay on MDA-MB-435; > 100 µM (inactive) in the assay on UACC-62; > 100 µM (inactive) in the assay on NCI/ADR-RES; > 100 µM (inactive) in the assay with UACC-257; > 100 µM (inactive) in the assay on SNB-19. In addition, the GI50 with HL-60, in the assay with HOP-92, in the assay with A549 and with MOLT-4 was > 100 µM (inactive) throughout.

On to `CC(C)CC1c2[nH]c3ccccc3c2C[C@H]2C(=O)NC(CCC(=O)OC(C)(C)C)C(=O)N12` (stereo partly drawn), for which the GI50 in the assay with LOX IMVI was 22.9 µM (inactive); in the assay with OVCAR-8, 39.3 µM (inactive); in the assay with T47D it was 15.8 µM (inactive); in the assay with SR, 22 µM (inactive); with M14, 36.7 µM (inactive); with U-251, 29 µM (inactive). Further, the GI50 in the assay with Hs-578T is 15.1 µM (inactive); in the assay on HCT-15 it was 33.8 µM; in the assay on MDA-MB-435 it was 36 µM (inactive); in the assay on CAKI-1 it was 42.4 µM (inactive); in the assay on UACC-62, 30.5 µM (inactive); with NCI/ADR-RES, 30.3 µM (inactive). For the same compound, the GI50 in the assay with UACC-257 was 25.9 µM (inactive); in the assay with SNB-19, 37.3 µM (inactive); with HL-60, 28.1 µM (inactive); in the assay on HOP-92, 27.5 µM (inactive); in the assay with A549 it was 34 µM (inactive); with MOLT-4, 22.6 µM (inactive).

Turning to `CCCCOC(=O)Nc1ccc(S(=O)(=O)Nc2c(Cl)cccc2Cl)cc1`, the GI50 in the assay with SF-539 is 29.4 µM (inactive); in the assay with LOX IMVI, 30.1 µM (inactive); with OVCAR-8, 22.3 µM (inactive); with T47D, 25.7 µM (inactive); in the assay with SR, 21.4 µM (inactive); in the assay on M14 it was 43 µM (inactive). The GI50 in the assay with U-251 was 36.1 µM (inactive); in the assay with Hs-578T, 43 µM (inactive); with HCT-15 it was 26.7 µM; in the assay on MDA-MB-435 it was 26.3 µM (inactive); with CAKI-1, 25.6 µM (inactive); with UACC-62, 21.2 µM (inactive). Besides, the GI50 is 24.3 µM (inactive) with NCI/ADR-RES; 35.6 µM (inactive) with UACC-257; 39.7 µM (inactive) with SNB-19; 22.3 µM (inactive) with HL-60; 24.2 µM (inactive) with HOP-92; 37.4 µM (inactive) in the assay on A549. The GI50 in the assay on MOLT-4 is 24.3 µM (inactive).

As to `COc1ccc2c(c1)c1c(n2CCN2CCOCC2)-c2cccc(OC)c2CC1`, the GI50 was 33.3 µM (inactive) in the assay with SF-539; 46.8 µM (inactive) in the assay with OVCAR-8; 59 µM (inactive) in the assay on T47D; 10 µM (inactive) in the assay on SR; 26.5 µM (inactive) with M14; 40.1 µM (inactive) with U-251. Also, the GI50 is 35 µM (inactive) in the assay with Hs-578T; 29.5 µM in the assay on HCT-15; 44 µM (inactive) with MDA-MB-435; > 100 µM (inactive) in the assay with CAKI-1; 29.6 µM (inactive) in the assay with UACC-62; 43.6 µM (inactive) with NCI/ADR-RES. In addition, the GI50 in the assay on UACC-257 is 58.5 µM (inactive); with HOP-92, 45.8 µM (inactive); in the assay on A549 it was 26.2 µM (inactive); in the assay on MOLT-4, 23.2 µM (inactive).

Turning to `O=C(O)CC12CC3CC(CC(O)(C3)C1)C2`, the GI50 in the assay with SF-539, in the assay with LOX IMVI, in the assay with OVCAR-8, in the assay on T47D, with SNB-75 and in the assay on SR was > 100 µM (inactive) throughout. In addition, the GI50 with M14 was > 100 µM (inactive); in the assay on U-251, > 100 µM (inactive); in the assay with Hs-578T, 27.5 µM (inactive); with HCT-15, more than 100 µM; in the assay with MDA-MB-435 it was > 100 µM (inactive); with CAKI-1, > 100 µM (inactive). Moreover, the GI50 in the assay on UACC-62, with NCI/ADR-RES, with UACC-257, in the assay with SNB-19, in the assay with HOP-92 and with A549 was > 100 µM (inactive) each time.

Consider `O=C(Cn1c(C(=O)/C=C/c2ccc(Cl)c(Cl)c2)nc2ccccc21)c1ccccc1`, for which the GI50 in the assay with SF-539 was 21.9 µM (inactive); in the assay on LOX IMVI, 17.9 µM (inactive); in the assay on T47D it was 31 µM (inactive); in the assay on SR it was 25 µM (inactive); in the assay on M14, 23.2 µM (inactive); in the assay with U-251, 26.8 µM (inactive). Moreover, the GI50 was 27.3 µM (inactive) with Hs-578T; 25.2 µM in the assay on HCT-15; 19.1 µM (inactive) in the assay with MDA-MB-435; 31 µM (inactive) with UACC-62; 21.8 µM (inactive) with NCI/ADR-RES; 27.7 µM (inactive) in the assay on UACC-257. The GI50 with SNB-19 is 27.4 µM (inactive); in the assay on HL-60, 15.6 µM (inactive); in the assay with HOP-92, 25.2 µM (inactive); in the assay on A549 it was 21.7 µM (inactive); in the assay on MOLT-4, 27.9 µM (inactive).

With `COC1(OC)C=CC2C1C1C=CC2C1(OC)OC` (stereo not drawn), the GI50 with SF-539, with LOX IMVI, with OVCAR-8, in the assay on T47D, in the assay on SNB-75 and in the assay with SR was > 100 µM (inactive) each time. The GI50 in the assay on M14 was > 100 µM (inactive); with U-251 it was > 100 µM (inactive); in the assay on Hs-578T, > 100 µM (inactive); with HCT-15, more than 100 µM; with MDA-MB-435, > 100 µM (inactive); in the assay on CAKI-1, > 100 µM (inactive). Further, the GI50 in the assay with UACC-62, in the assay on NCI/ADR-RES, with UACC-257, with SNB-19, with HOP-92 and in the assay with A549 was > 100 µM (inactive) in each case. In addition, the GI50 in the assay on MOLT-4 is > 100 µM (inactive).

As for `O=C1C[C@H](CCC(=O)OCc2ccccc2)NC(=O)C[C@H](CCC(=O)OCc2ccccc2)NC(=O)C[C@H](CCC(=O)OCc2ccccc2)N1`, the GI50 in the assay on SF-539 was 5.64 µM (inactive); with LOX IMVI, > 100 µM (inactive); with OVCAR-8 it was > 100 µM (inactive); with T47D it was 44.3 µM (inactive); in the assay with SNB-75 it was 2.22 µM (inactive); in the assay with SR, > 100 µM (inactive). For the same compound, the GI50 is > 100 µM (inactive) in the assay with M14; 5.24 µM (inactive) in the assay on U-251; 5.24 µM (inactive) with Hs-578T; more than 100 µM in the assay with HCT-15; > 100 µM (inactive) in the assay with MDA-MB-435; > 100 µM (inactive) with CAKI-1. In addition, the GI50 was 88.9 µM (inactive) with UACC-62; 82.4 µM (inactive) in the assay on NCI/ADR-RES; > 100 µM (inactive) with UACC-257; 9.98 µM (inactive) in the assay on SNB-19; 3.92 µM (inactive) with HOP-92; > 100 µM (inactive) in the assay with A549. For the same compound, the GI50 in the assay with MOLT-4 was > 100 µM (inactive).
